The results in this text go back to patent publication US8168651B2, “Protein kinase modulators” (Cylene Pharmaceuticals, Inc., priority 2008, dated 2012).

Each structure is given as a SMILES string.

As a reminder, the IC50 is the concentration at which inhibition is half-maximal.

This assay relates to MDAMB231. Put plainly: Cell-proliferation assay using Alamar Blue dye. In kind it is cell-based. Conditions: Homo sapiens, MDA-MB-231. How it is done: A representative cell-proliferation assay protocol using Alamar Blue dye (stored at 4° C., use 20 ul per well) is described hereafter.
96-Well Plate Setup and Compound Treatment
• a. Split and trypsinize cells. • b. Count cells using hemocytometer. • c. Plate 4,000-5,000 cells per well in 100 μl of medium and seed into a 96-well plate according to the following plate layout. Add cell culture medium only to wells B10 to B12. Wells B1 to B9 have cells but no compound added.
• d. Add 100 μl of 2× drug dilution to each well in a concentration shown in the plate layout above. At the same time, add 100 μl of media into the control wells (wells B10 to B12). Total volume is 200 μl/well. • e. Incubate four (4) days at 37° C., 5% CO2 in a humidified incubator. • f. Add 20 μl Alamar Blue reagent to each well. • g. Incubate for four (4) hours at 37° C., 5% CO2 in a humidified incubator. • h. Record fluorescence at an excitation wavelength of 544 nm and emission wavelength of 590 nm using a microplate reader.
In the assays, cells are cultured with a test compound for approximately four days, the dye then is added to the cells and fluorescence of […] dye is detected after approximately four hours. Different types of cells can be utilized in the assays (e.g., HCT-116 human colorectal carcinoma cells, PC-3 human prostatic cancer cells and MiaPaca human pancreatic carcinoma cells). Anti-proliferative effects of representative compounds are provided hereafter
A general note: Alamar Blue is a resazurin reagent that responds to reducing activity.

Consider `C#Cc1cccc(Nc2nc3cc(C(=O)O)ccc3c3cnccc23)c1` [drawing 998], for which inhibition was half-maximal at 11.8 µM (IC50).

For the compound `O=C(O)c1ccc2c(c1)nc(NCc1ccccc1)c1ccncc12` [drawing 1000], half-maximal inhibition (IC50) required 38 µM.

In turn, `C#Cc1cccc(Nc2nc3cc(C(=O)O)ccc3c3cnc(NCC4CCCO4)nc23)c1` (stereo not drawn) [drawing 1038] gave an IC50 of 8.38 µM.

Consider `C#Cc1cccc(Nc2nc3cc(C(=O)O)ccc3c3cnc(NCC4CC4)nc23)c1` [drawing 1039], for which the IC50 stood at 2.63 µM.

`COC(=O)c1ccc2c(c1)nc(NC1CC1)c1nc(SCc3ccccc3Cl)ncc12` [drawing 1044]: the midpoint of inhibition, the IC50, lay at 7.23 µM.

With `O=C(O)c1ccc2c(c1)nc(NC1CC1)c1nc(SCc3ccccc3Cl)ncc12` [drawing 1047], the IC50 is > 50 µM.

In the case of `CCOc1ncc2c(n1)c(NC1CC1)nc1cc(C(=O)O)ccc12` [drawing 1048], the IC50 is > 50 µM.

In the case of `O=C(O)c1ccc2c(c1)nc(NC1CC1)c1nc(NC3CC3)ncc12` [drawing 1049], the IC50 is 7.22 µM.

Regarding `O=C(O)c1ccc2c(c1)nc(NC1CC1)c1nc(NCc3ccccc3)ncc12` [drawing 1050], the IC50 worked out at 23.5 µM.

Compound `O=C(O)c1ccc2c(c1)nc(NC1CC1)c1nc(Nc3ccccc3)ncc12` [drawing 1051] gave an IC50 of 6.88 µM.

On to `O=C(O)c1ccc2c(c1)nc(Nc1cncc(C3CC3)c1)c1ccncc12` [drawing 1052], for which the IC50 was > 50 µM.

Consider `O=C(O)c1ccc2c(c1)nc(NCc1cccnc1)c1nc(NC3CC3)ncc12` [drawing 1058], for which the IC50 is > 50 µM.

As for `O=C(O)c1ccc2c(c1)nc(NCc1ccccc1)c1nc(NC3CC3)ncc12` [drawing 1059], the IC50 was > 50 µM.

As for `O=C(O)c1ccc2c(c1)nc(N1CCOCC1)c1nc(NC3CC3)ncc12` [drawing 1060], the IC50 is > 50 µM.

On to `CC1CCCCN1CCCNc1ncc2c(n1)c(Nc1ccc(F)c(Cl)c1)nc1cc(C(=O)O)ccc12` (stereo not drawn) [drawing 1062], for which the IC50 came to 9.66 µM.

`Cc1cc(Nc2ncc3c(n2)c(Nc2ccc(F)c(Cl)c2)nc2cc(C(=O)O)ccc23)[nH]n1` [drawing 1068]: the half-maximal inhibitory concentration (IC50) is > 50 µM.

For the compound `O=C(O)c1ccc2c(c1)nc(NC1CC1)c1ccncc12` [drawing 1072], the IC50 was > 50 µM.

The compound `COC(=O)c1ccc2c(c1)nc(NC1CC1)c1nc(SC)ncc12` [drawing 1074] registered a 50% inhibitory concentration (IC50) of 34.2 µM.

As to `CN(C)CCNc1nc2cc(C(=O)O)ccc2c2cnc(NC3CC3)nc12` [drawing 1075], the 50% inhibitory concentration (IC50) was > 50 µM.

For `Nc1ncc2c(n1)c(NC1CC1)nc1cc(C(=O)O)ccc12` [drawing 1077], the IC50 was > 50 µM.

For `CCCNc1ncc2c(n1)c(NC1CC1)nc1cc(C(=O)O)ccc12` [drawing 1078], it took 4.36 µM to reach half-maximal inhibition (IC50).
